Assay results: ChEMBL document CHEMBL5230120, “Antiviral potential of natural products from marine microbes” (Eur J Med Chem, 2020)
≈ marks a conversion by molar mass, not a printed value. Starred links: 1 amine or outer side, 2 acyl side, 3 side chain; linkers in the order of their positions; H or OH if unused. Positions of bridges follow the written chain, without caps; N, C: chain ends. Non-standard residues stand in square brackets, D forms with d. Residues, ends and D or L forms follow the SMILES beside them. X1 = CCCCCCCCC[C@@H](CCCC(=O)[*:1])O[*:2]; d(aThr) = C[C@@H](O)[C@@H](N)C(=O)O; dNMeY = CN[C@H](Cc1ccc(O)cc1)C(=O)O; aIle = CC[C@@H](C)[C@H](N)C(=O)O

Experiments:
[1] = test system: Human alphaherpesvirus 1; assay type: functional, organism-based; conditions: Human alphaherpesvirus 1, Vero, 72 h
[2] = test system: Influenza A virus; test: microbe, parasite or virus in culture; conditions: H3N2, MDCK, 48 h
[3] = test system: Influenza A virus; test: microbe, parasite or virus in culture; conditions: H1N1, MDCK, 48 h
[4] = test system: Respiratory syncytial virus; assay type: functional, organism-based; conditions: human respiratory syncytial virus, HEp-2
[5] = test system: Dengue virus; test: Antiviral activity against Dengue virus serotype 2 infected in HEK293T/17 cells assessed as reduction in viral production at 50 uM incubated for 24 hrs by flow cytometric analysis; assay type: functional; set-up: scale not given: the % may be the effect or the level left
[6] = test system: Influenza A virus; assay type: functional
[7] = test system: Human alphaherpesvirus 1; assay type: functional, organism-based; conditions: Human alphaherpesvirus 1, Vero, 72 h; remark: listed apart in the source
[8] = test system: Human alphaherpesvirus 1; assay type: functional, organism-based; conditions: Human alphaherpesvirus 1, KOS, Vero, 72 h
[9] = test system: Influenza A virus; test: microbe, parasite or virus in culture; conditions: H3N2, Vero
[10] = test system: Influenza A virus; test: microbe, parasite or virus in culture; conditions: A/WSN/33 (H1N1), MDCK
[11] = test system: Human immunodeficiency virus 1; test: Antiviral activity against HIV-1 infected in human HEK293 cells co-expressing firefly luciferase gene assessed as inhibition of viral growth incubated for 48 hrs by firefly luciferase assay; assay type: functional, organism-based; conditions: Human immunodeficiency virus 1, HEK293, 48 h
[12] = Cytotoxicity against human HEK293 cells assessed as reduction in cell viability; assay type: toxicity, cell-based
[13] = test system: Human immunodeficiency virus 1; test: Antiviral activity against HIV1 VSV-G pseudotyped virus infected in human SUP-T1 cells infected using supernatant of virus-producing 293T cells incubated for 48 hrs by firefly luciferase assay; assay type: functional, organism-based; conditions: Human immunodeficiency virus 1, HEK293, 48 h
[14] = test system: Influenza A virus; assay type: functional, organism-based; conditions: A/Puerto Rico/8/1934(H1N1), MDCK, 48 h
[15] = test system: Chikungunya virus; test: Antiviral activity against CHIKV infected in Golden hamster BHK-21 cells assessed as reduction in viral titer incubated for 3 days by plaque assay; assay type: functional, organism-based; conditions: BHK-21, 72 h
[16] = test system: Enterovirus A71; assay type: functional, organism-based; conditions: Enterovirus A, Vero
[17] = test system: Human alphaherpesvirus 1; assay type: functional, organism-based; conditions: Human alphaherpesvirus 1, Vero, 72 h; remark: listed apart in the source
[18] = test system: Human alphaherpesvirus 1; assay type: functional, organism-based; conditions: Human alphaherpesvirus 1, Vero, 72 h; remark: listed apart in the source
[19] = test system: Enterovirus A71; assay type: functional, organism-based; conditions: Enterovirus A, Vero; remark: listed apart in the source
[20] = test system: Influenza A virus; assay type: functional, organism-based; conditions: H1N1
[21] = test system: Hepatitis C virus; test: Antiviral activity against HCV infected in human Huh7.5 cells incubated for 72 hrs by RT-PCR assay; assay type: functional, organism-based, Hepacivirus hominis; conditions: Huh7.5, 72 h
[22] = test system: Western equine encephalitis virus; test: Antiviral activity against Western equine encephalomyelitis virus Cba-87 infected in Golden hamster BSR-T7/5 cells assessed as reduction in viral RNA replication by RT-PCR analysis; assay type: functional, organism-based; conditions: Cba-87, BSR-T7/5
[23] = test system: Human alphaherpesvirus 1; assay type: functional, organism-based; conditions: Human alphaherpesvirus 1, 15577, Vero
[24] = test system: Human alphaherpesvirus 1; assay type: functional, organism-based; conditions: Human alphaherpesvirus 1, Vero, 72 h; remark: listed apart in the source

## COc1ccc(-c2cc3c(c(=O)o2)C[C@]2(O)[C@@]4(C)C(=O)C=CC(C)(C)[C@]4(O)CC[C@@]2(C)O3)cc1OC
[1]
  IC50: 6.34 µg/mL (≈ 12.8 µM)

## CC[C@H]1O[C@@H]2O[C@H](/C=C/C=C/C=C/c3oc(=O)cc(OC/C=C(\C)C(=O)OC)c3C)[C@H](O)[C@]2(C)[C@@]1(C)O
[2]
  IC50: 0.0062 µM
[3]
  IC50: 3.5 µM

## COC(=O)/C(C)=C/COc1cc(=O)oc(/C=C/C=C/C=C/[C@H]2O[C@H]3O[C@H](C)[C@](C)(O)[C@@]3(C)[C@H]2O)c1C
[2]
  IC50: 0.0089 µM

## COC(=O)[C@]1(Cc2ccc3c(c2)CCC(C)(C)O3)OC(=O)C(O)=C1c1ccc(O)cc1
[1]
  IC50: 28.9 µg/mL (≈ 68.1 µM)

## CCCCC/C=C/C1=C(CO)[C@@H]2OC(C)(C)[C@@H](O)C[C@@]23O[C@H]3[C@@H]1O
[4]
  IC50: 30.2 µM

## CC(C)[C@@H]1NC(=O)[C@@H](C[C@@]2(O)c3ccccc3N3C(=O)C(C)(C)N[C@@H]32)n2c1nc1ccccc1c2=O
[5]
  Activity: 50%

## CC(=O)c1c(O)cc2c3c(cccc13)C=C(C[C@@H](C)O)O2
[6]
  inhibition at 50 µg/mL: 42.5%

## CCCCCCCCC[C@H]1CCCC(=O)N[C@H](CO)C(=O)N[C@H](C)C(=O)N2CCC[C@H]2C(=O)N[C@@H](CCC(N)=O)C(=O)N[C@H](Cc2ccc(O)cc2)C(=O)N[C@@H](C(C)C)C(=O)O1
[7]
  EC50: 15.6 µM

## COc1cc(O)c2c(c1)[C@H](O)[C@](O)(CC(C)=O)CC2=O
[8]
  IC50: 0.1 µg/mL (≈ 0.357 µM)

## CC(=O)[C@H]1CC[C@H]2C3=CC(=O)[C@H]4C[C@H](O)CC[C@]4(C)[C@H]3CC[C@]12C
[9]
  IC50: 16.2 µM

## COc1cc(O)c2c(c1)[C@H](O)[C@@H](CC(C)=O)CC2=O
[8]
  IC50: 1 µg/mL (≈ 3.78 µM)

## C=C(C)C#CC1=C[C@@H]2O[C@@H](C(C)(C)O)C[C@]23O[C@@H]3[C@@H]1O
[10]
  IC50: 30.4 µM

## COc1cc(CCCC(C)C)oc(=O)c1C
[11]
  IC50: 16.1 µM
[12]
  IC50: > 100 µM

## O=C1C[C@H](O)Cc2cc3cc(O)cc(-c4ccccc4)c3c(O)c21
[6]
  inhibition at 50 µg/mL: 47.8%

## C=C(CC[C@@H](C)[C@H]1CC=C2C3=C(CC[C@@]21C)[C@@]1(C)CC[C@H](O)C[C@@H]1CC3=O)C(C)C
[13]
  IC50: 3.5 µM

## CC1(C)CCc2cc(/C=C3\OC(=O)C=C3c3ccc(O)cc3)ccc2O1
[14]
  IC50: 87.1 µM

## CO[C@@H](CC[C@H](C)[C@H]1O[C@@]23C[C@H](OC(=O)C[C@H]([C@@H](C)O)OC(=O)C[C@](OC)(O2)[C@H](C)CC3(C)C)[C@@H]1C)c1cccc(O)c1
[15]
  IC50: 2.7 µM

## CC(O)c1cc2c(cc1O)C(=O)c1cc(O)cc(O)c1C2=O (stereo unspecified)
[16]
  IC50: 25.7 µM

## C[C@@H]1C/C=C/C(=O)C/C=C/[C@H](O)CC(=O)O1
[17]
  IC50: 0.45 µM

## COc1cc(O)c2c(c1)[C@@H]1OC(C)(OC)C[C@]1(O)CC2=O (stereo partly specified)
[8]
  IC50: 0.1 µg/mL (≈ 0.34 µM)

## CC(C)/C=c1\[nH]c(=O)/c(=C/c2ccc(O)cc2)[nH]c1=O
[14]
  IC50: 41.5 µM

## CCCCC/C=C/C1=C(CO)[C@@H]2OC(C)(C)[C@@H](O)C[C@]2(O)[C@H](O)[C@@H]1O
[4]
  IC50: 72 µM

## C=C(C)C#CC1=C[C@@H]2O[C@@H](C(C)(C)O)C[C@]23O[C@@H]3[C@H]1O
[12]
  IC50: > 100 µM

## CC(=O)C(C)(O)CCCCC[C@H]1C=CC(=O)O1 (stereo partly specified)
[18]
  EC50: 25.4 µM

## Cc1c2c(c3oc4c(C)c(=O)c(C)c5c-4c(c3c1O)O[C@H](C)[C@H]5C)O[C@H](C)[C@H]2C
[19]
  IC50: 14.5 µM

## O=C(O)c1ccccc1Nc1c(C[C@H](O)[C@H](O)CO)[nH]c2c(C(=O)O)cccc12
[20]
  IC50: 171 µM

## COc1cc(O)c2c(c1)[C@H](O)[C@](O)(CO)CC2=O
[8]
  IC50: 1 µg/mL (≈ 3.93 µM)

## COc1cc(O)c2c(c1)[C@H](O)[C@](O)(CC(C)O)CC2=O (stereo partly specified)
[8]
  IC50: 0.01 µg/mL (≈ 0.0354 µM)

## CC[C@H](C)c1nc(OC)c(Cc2c[nH]c3ccccc23)nc1O
[13]
  IC50: 4.6 µM
[21]
  IC50: 7.7 µM

## COc1ccc(-c2cc3c(c(=O)o2)C[C@H]2[C@@](C)(CC[C@@]4(O)C(C)(C)OC(=O)CC[C@]24C)O3)cc1
[1]
  IC50: 16.4 µg/mL (≈ 35 µM)

## CC(C)CC[C@@H]1NC(=O)/C(=C/c2ccccc2)NC1=O
[14]
  IC50: 6.8 µM

## CCC[C@H]1C[C@H]2OC(=O)c3c(cc(O)c(OC)c3O)[C@H]2O1
[14]
  IC50: 172 µM

## CCCCCCCC[C@H]1C(=O)O[C@H](C)[C@H](NC(=O)c2cccc(NC=O)c2O)C(=O)O[C@@H](C)[C@@H]1OC(=O)CC(C)CC (stereo partly specified)
[22]
  IC50: 0.003 µM

## COC1(Cc2ccc(O)cc2)OC(=O)C(O)=C1c1ccc(O)cc1 (stereo unspecified)
[1]
  IC50: 21.8 µg/mL (≈ 66.4 µM)

## CC(C)[C@@H](NC(=O)[C@H](Cc1c[nH]c2ccccc12)NC(=O)[C@H](N)Cc1ccc(O)cc1)C(=O)O
[23]
  IC50: 19.8 µM

## COc1cc(O)c2c(c1)[C@H](O)[C@@H](CO)CC2=O
[8]
  IC50: 1 µg/mL (≈ 4.2 µM)

## CO[C@@H](CC[C@H](C)[C@H]1O[C@]23C[C@H](OC(=O)C[C@H]([C@@H](C)O)OC(=O)CC(=C(C)CC2(C)C)O3)[C@@H]1C)c1cccc(O)c1
[15]
  IC50: 22.3 µM

## CC(=O)[C@H]1CC[C@H]2C3=CC(=O)[C@@]4(C)C[C@H](O)CC[C@]4(C)[C@H]3CC[C@]12C
[4]
  IC50: 0.12 µM

## CCCCCCCCC[C@H]1CCCC(=O)N[C@H]([C@@H](C)O)C(=O)N[C@H](C)C(=O)N2CCC[C@H]2C(=O)N[C@@H](CCC(N)=O)C(=O)N[C@H](Cc2ccc(O)cc2)C(=O)N[C@@H](C(C)C)C(=O)O1
[7]
  EC50: 16.7 µM

## CCC(C)[C@@H]1C(=O)/C(=C(/O)[C@@H]2[C@@H]([C@@H]3O[C@H]3C)C(C)=C[C@@H]3CCC[C@H](C)[C@@H]23)C(=O)N1C (stereo partly specified)
[24]
  IC50: 3.08 µM

## C/C=C(\C)[C@H]1C(C)=C[C@@H]2CCC[C@H](C)[C@H]2[C@@H]1/C(O)=C1\C(=O)[C@@H](C(C)C)N(C)C1=O
[24]
  IC50: 3.12 µM

## CC1=C[C@@H]2CCC[C@H](C)[C@H]2[C@H](/C(O)=C2\C(=O)[C@@H](C(C)C)N(C)C2=O)[C@H]1[C@@H]1O[C@H]1C
[24]
  IC50: 9.37 µM

## CCCCCCCCC[C@H]1CCCC(=O)N[C@H]([C@@H](C)O)C(=O)N[C@H](C)C(=O)N2CCC[C@H]2C(=O)N[C@@H](CCC(N)=O)C(=O)N[C@H](Cc2ccc(O)cc2)C(=O)N[C@@H]([C@H](C)CC)C(=O)O1 ([d(aThr)][dA]PQ[dY][aIle]; linker N-C via X1)
[7]
  EC50: 14 µM

## COc1ccc(C[C@@H]2NC(=O)[C@@H]3CCCN3C(=O)[C@H](C(C)C)NC(=O)[C@@H](Cc3ccc(O)cc3)N(C)C(=O)[C@H](Cc3ccc(OC)cc3)NC2=O)cc1 (cyclo(PY(Me)Y(Me)[dNMeY]V))
[23]
  IC50: 9.5 µM

## Nc1nc2c(ncn2COCCO)c(=O)[nH]1 [ACYCLOVIR]
[7]
  EC50: 3 µM
[24]
  IC50: 3.5 µM

## CO[C@@H](CC[C@H](C)[C@H]1O[C@@]23C[C@H](OC(=O)C[C@H]([C@@H](C)O)OC(=O)C[C@](O)(O2)[C@H](C)CC3(C)C)[C@@H]1C)c1cccc(O)c1 [DEBROMOAPLYSIATOXIN]
[15]
  IC50: 1.3 µM

## O=C1Nc2ccc(Cl)cc2[C@@](C#CC2CC2)(C(F)(F)F)O1 [EFAVIRENZ]
[12]
  IC50: 40.6 µM

## Nc1nc2c(ncn2COC(CO)CO)c(=O)[nH]1 [GANCICLOVIR]
[18]
  EC50: 0.025 µM

## CCC[C@H]1C[C@H]2OC(=O)c3c(cc(OC)c(OC)c3O)[C@H]2O1 [MONOCERIN]
[14]
  IC50: 176 µM

## CCOC(=O)C1=C[C@@H](OC(CC)CC)[C@H](NC(C)=O)[C@@H](N)C1 [OSELTAMIVIR]
[10]
  IC50: 46.7 µM
[9]
  IC50: 0.034 µM

## NC(=O)c1ncn([C@@H]2O[C@H](CO)[C@@H](O)[C@H]2O)n1 [RIBAVIRIN]
[14]
  IC50: 38.8 µM
[20]
  IC50: 133 µM
[6]
  inhibition at 50 µg/mL: 45.3%
[4]
  IC50: 0.08 µM
[19]
  IC50: 13.3 µM
[16]
  IC50: 13.3 µM
